# According to ChEMBL document CHEMBL1141825, “Chemistry of verongida sponges. 9.1 secondary metabolite composition of the caribbean sponge aplysina cauliformis” (J Nat Prod, 1999):
# Test system: HeLa
# Assay: Antiproliferative activity against human HeLa cells assessed as [3H]thymidine incorporation after 72 hrs by miniaturized, improved, nucleic acid precursor incorporation assay
# Format: functional, cell-based
smiles,measurement,value
COC(=O)NCC(=O)CCNC(=O)C1=NO[C@]2(C=C(Br)C(OC)=C(Br)[C@@H]2O)C1,IC50,50 µg/mL
